Here are results for seven compounds from patent publication US20250034136A1 (Nimbus Wadjet, Inc., priority 2023, published 2025).

Test [1] concerns p21 induction in HCT116 cells. The test is described as follows: p21 induction in HCT116 cells. It is filed as cell-based. Conditions: HCT116 cells, 24 h compound incubation, read-out: P21_EC50. Here is the method:
The colon carcinoma cell line HCT116 was obtained from ATCC and cultured in growth medium consisting of Mccoy's 5A Medium (Gibco 16600108) supplemented with 10% FBS (Transgene FS201-02) and 100 units/mL penicillin-streptomycin (Gibco 15140122) and maintained at 37° C. under 5% CO2. On the day of seeding, 2,000 cells in 30 μL of culture media were plated per well to Poly-D-Lysine 384 Well Black Clear Plates (Biocoat 356663) and incubated overnight at 37° C. under 5% CO2. The following day, compounds were serially diluted in DMSO for a total of 11 test concentrations. […] Next, 150 nL of diluted compound was added in duplicate to the assay plate, using an Echo 655 (Labcyte). The plate was centrifuged at 500 RPM for 1 min and then incubated at 37° C. under 5% CO2 for 24 h. After 24 h, medium was removed, and cells were fixed by adding 40 μL of 4% paraformaldehyde solution to each well and incubated for 20 min at room temperature. The plate was then washed 4 times with 100 μL per well of wash buffer (PBS with 0.1% Tween-20) using a microplate washer. Next, 30 μL of ice-cold methanol was added to each well and the plate was incubated at −20° C. for 10 min. The plate was washed 4 times with 100 μL per well of wash buffer by a microplate washer, then 30 μL per well of blocking buffer (Intercept PBS blocking buffer (LI-COR 927-70001) with 0.05% Tween-20) was added and the plate was incubated at room temperature with shaking for 2 h. Next, to each test well, 20 μL of primary antibody solution (p21 Waf1/CIP (12D1) RabbitmAb (Cell Signaling Technologies 2947) diluted 1:1000 and GAPDH (D4C6R) Mouse mAb (Cell Signaling Technologies 97166) diluted 1:2000 in blocking buffer) was added and the plate was placed at 4° C., overnight. The following day, the plate was washed 5 times with 100 μL per well of wash buffer using a microplate washer for 5 min. 20 μL per well of secondary antibody (IRDye 680CW Goat anti-Mouse IgG (H+L) (LI-COR 926-68070) diluted 1: 2000 in Blocking Buffer and IRDye 800CW Goat anti-Rabbit IgG (H+L) (LI-COR 926-32211) diluted 1: 2000 in Blocking Buffer) was then added and the plate was stored for 2 h in the dark at room temperature with shaking. The plate was then washed 4 times with 100 μL per well of wash buffer again using a microplate washer. Finally, the p21 signal and the GAPDH signal were quantified using a LI-COR Odyssey CLx Imager machine reading at 800 nm and 700 nm, respectively. Each plate contained DMSO control (low control) and an internal reference WRN inhibitor (high control) respectively. […] EC50 values for each compound were generated after non-linear regression curve fitting using commercially available software.

In test [2] the target is WRN (BV08), human Werner helicase (Uniprot Q14191, amino acids 517-1235 with L1074F point mutation) (Homo sapiens (Human), UniProt Q14191, L1074F). Description: WRN (BV08) ADP-Glo assay. It is filed as biochemical. Conditions: class symbols A-E, read-out: ADP-Glo_hWRN_IC50. As to the method:
Bovine skin gelatin (BSG), dimethyl sulfoxide (DMSO), Pluronic F-127 and tris(2-carboxyethyl)phosphine hydrochloride solution (TCEP) were purchased from Sigma-Aldrich (St. Louis, MO) at the highest level of purity possible. […] DNA strands were annealed by heating to 95° C. for 5 minutes followed by slow cooling to room temperature. Compounds in 100% DMSO (0.1 μl) were spotted into a 384-well white polystyrene Optiplate-384 (Perkin Elmer; Waltham, MA) assay plate using a LabCyte Echo 550 (Agilent; Santa Clara, CA). DMSO (0.1 μl) was added to columns 12, rows A-H and column 24, rows I-P for the maximum signal control. […] Compounds/DMSO were preincubated for 15 minutes at 25° C. with 5 μl 2×WRN (BV08), prepared as described below, in assay buffer containing 20 mM Bicine (pH=7.5), 1 mM MgCl2, 10 mM KCl, 0.1% Pluronic F-127, 0.005% BSG, 1 mM TCEP. The reaction was initiated by the addition of 5 μl 2× substrate mixture in assay buffer and incubated for 60 minutes at 25° C. The final concentrations of the assay components were 0.15 nM WRN, 5 μM ATP, and 0.1 nM DNA duplex. The final DMSO concentration was 1% and the reference compound concentration (NSC-617145) used for the minimal signal control was 20 μM. The reaction was stopped by the addition of the ADP-Glo Kit components (Promega; Madison, WI) as directed and the relative luminescence units (RLU) were read on an Envision 2104 (Perkin Elmer; Waltham, MA). % inhibition calculation:
[formula] • Where RLU=relative luminescence units, sample=signal in sample well, and MIN and MAX are the respective minimum and maximum signal controls.
[formula] • Where top and bottom are normally allowed to float but may be fixed at 100 or 0 respectively in a 3-parameter fit. Y is the % inhibition and X is the compound concentration.
Molecular Biology and virus production. […] The baculovirus from the expression plasmid WRN—BV08 was generated from transfection and amplification following the manufacturer's instructions.
Sf9 cells grown in SF900II media were infected with 1:200 WRN—BV08 P2 virus and incubated for protein expression for 72 h at 27° C. The WRN protein was purified using the following protocol. The cell pellets were thawed and resuspended in buffer A (50 mM Tris, pH 7.5, 500 mM NaCl, 1 mM TCEP, 10% Glycerol) supplemented with 0.5% CHAPS, 1 mM PMSF, 1 μg/ml Leupeptin, 1 μg/ml Pepstatin, and the Pierce Universal Nuclease and cocktail tablet. Cleared lysates were loaded onto a Ni Sepharose™ excel column and washed with buffer A and bound protein was eluted with buffer A supplemented with 300 mM imidazole. The eluted protein was dialyzed against buffer A and digested by His-tagged TEV (1:5 ratio) overnight at 4° C. ZnCl2 was added into the sample at final 15 μM before loading onto a second Ni Sepharose™ excel column. Untagged WRN protein was eluted from the column with buffer A supplemented with 20 mM imidazole, dialyzed overnight into buffer B (50 mM Tris, pH 7.5, 1 mM TCEP, 10% Glycerol) supplemented with 150 mM NaCl and loaded onto a Heparin column. Proteins were eluted with a step gradient of buffer B supplemented with 150 mM, 200 mM, 300 mM and 500 mM NaCl. WRN containing fractions were pooled and concentrated prior to loading on to size exclusion chromatography using a HiLoad 16/600 Superdex™ 200 pg column (GE Healthcare) in buffer C (20 mM HTEPES, pH 7.5, 250 mM NaCl, 0.25 mM TCEP, […]).

Read-outs that look alike come from different tables or passages of the source. A value given as a limit tells only on which side of the number the result lay.

Sequence of WRN (BV08), human Werner helicase (Uniprot Q14191, amino acids 517-1235 with L1074F point mutation) (Q14191 other isoform, or with tags, fused parts or gaps L1074F (already in the parent)): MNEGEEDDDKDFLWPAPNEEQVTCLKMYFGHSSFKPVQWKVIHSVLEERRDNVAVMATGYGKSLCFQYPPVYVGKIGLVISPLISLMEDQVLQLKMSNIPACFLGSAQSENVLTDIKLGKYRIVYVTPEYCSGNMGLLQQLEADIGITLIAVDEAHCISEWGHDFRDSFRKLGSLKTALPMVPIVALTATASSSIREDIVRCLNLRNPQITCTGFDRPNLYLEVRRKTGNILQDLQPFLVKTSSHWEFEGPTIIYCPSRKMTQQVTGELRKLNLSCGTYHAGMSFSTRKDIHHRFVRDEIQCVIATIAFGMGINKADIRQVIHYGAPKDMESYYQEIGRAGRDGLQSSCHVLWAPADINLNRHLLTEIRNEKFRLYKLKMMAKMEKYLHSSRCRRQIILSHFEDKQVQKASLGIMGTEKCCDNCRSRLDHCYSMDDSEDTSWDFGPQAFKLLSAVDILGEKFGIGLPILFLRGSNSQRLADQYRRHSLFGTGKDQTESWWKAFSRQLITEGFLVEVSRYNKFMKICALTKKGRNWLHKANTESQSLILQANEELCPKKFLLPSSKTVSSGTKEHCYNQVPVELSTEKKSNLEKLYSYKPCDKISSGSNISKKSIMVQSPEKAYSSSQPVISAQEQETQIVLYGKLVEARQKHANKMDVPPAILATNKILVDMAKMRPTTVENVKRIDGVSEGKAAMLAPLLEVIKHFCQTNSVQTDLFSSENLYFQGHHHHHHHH

On to `CCc1c(N2CCN(C(=O)c3ncnc(C)c3O)[C@@H](COC)C2)c(=O)c2nc(N(C)C)cnc2n1CC(=O)Nc1ccc(C(F)(F)F)cc1Cl` (single isomer, unassigned) [I-96, N-(2-chloro-4-(trifluoromethyl)phenyl)-2-(2-(dimethylamino)-6-ethyl-7-(4-(5-hydroxy-6-methylpyrimidine-4-carbonyl)-3-(methoxymethyl)piperazin-1-yl)-8-oxopyrido[2,3-b]pyrazin-5(8H)-yl)acetamide], for which, in test [1], the EC50 was above 5 µM. The IC50 in test [2] fell in the range of 0.005 to 0.05 µM.
On to `CCc1c(N2CCN(C(=O)c3ncnc(C)c3O)[C@@H]3CC[C@H]32)c(=O)c2nc(N(C)C3CC3)cnc2n1CC(=O)Nc1ccc(C(F)(F)F)cc1Cl` (single isomer, unassigned) [I-119, N-(2-chloro-4-(trifluoromethyl)phenyl)-2-(2-(cyclopropyl(methyl)amino)-6-ethyl-7-(5-(5-hydroxy-6-methylpyrimidine-4-carbonyl)-2,5-diazabicyclo[4.2.0]octan-2-yl)-8-oxopyrido[2,3-b]pyrazin-5(8H)-yl)acetamide], for which the EC50 in test [1] (Homo sapiens, HCT-116, 24 h) is below 0.5 µM. The IC50 in test [2] was in the range of 0.005 to 0.05 µM.
For the compound `CCc1c(N2CCN(C(=O)c3ncnc(C)c3O)[C@@H]3CC[C@H]32)c(=O)c2nc(N(C)C3CC3)cnc2n1CC(=O)Nc1ccc(C(F)(F)F)cc1Cl` (single isomer, unassigned) [I-169, N-[2-chloro-4-(trifluoromethyl)phenyl]-2-{2-[cyclopropyl(methyl)amino]-6-ethyl-7-[-5-(5-hydroxy-6-methylpyrimidine-4-carbonyl)-2,5-diazabicyclo[4.2.0]octan-2-yl]-8-oxo-5H,8H-pyrido[2,3-b]pyrazin-5-yl}acetamide], the EC50 in test [1] fell in the range of 0.5 to 2 µM. Also, the IC50 in test [2] was 0.005 to 0.05 µM.
Consider `CCc1c(N2CCN(C(=O)c3ncnc(C)c3O)[C@H]3CC[C@@H]32)c(=O)c2nc(NC)cnc2n1CC(=O)Nc1ccc(C(F)(F)F)cc1Cl` (single isomer, unassigned) [I-171, N-(2-chloro-4-(trifluoromethyl)phenyl)-2-(6-ethyl-7-(5-(5-hydroxy-6-methylpyrimidine-4-carbonyl)-2,5-diazabicyclo[4.2.0]octan-2-yl)-2-(methylamino)-8-oxopyrido[2,3-b]pyrazin-5(8H)-yl)acetamide], for which the EC50 in test [1] was above 5 µM. In addition, the IC50 in test [2] lay in the range of 0.05 to 0.1 µM.
With `CCc1c(N2CCN(C(=O)c3ncnc(C)c3O)[C@@H]3CC[C@H]32)c(=O)c2nc(NC)cnc2n1CC(=O)Nc1ccc(C(F)(F)F)cc1Cl` (single isomer, unassigned) [I-172, N-(2-chloro-4-(trifluoromethyl)phenyl)-2-(6-ethyl-7-(5-(5-hydroxy-6-methylpyrimidine-4-carbonyl)-2,5-diazabicyclo[4.2.0]octan-2-yl)-2-(methylamino)-8-oxopyrido[2,3-b]pyrazin-5(8H)-yl)acetamide], the EC50 in test [1] (Homo sapiens, HCT-116, 24 h) was below 0.5 µM. In test [2], the IC50 is at most 0.005 µM.
As to `CCc1c(N2CCN(C(=O)c3ncnc(C)c3O)C[C@@H]2C)c(=O)c2nc(N3CC[C@H]4C[C@H]43)cnc2n1CC(=O)Nc1ccc(C(F)(F)F)cc1Cl` (single isomer, unassigned) [I-192], the EC50 in test [1] (Homo sapiens, HCT-116, 24 h) is below 0.5 µM. In addition, in test [2], the IC50 is at most 0.005 µM.
Consider `CCc1c(N2CCN(C(=O)c3ncnc(C)c3O)[C@@H](C)[C@H]2C)c(=O)c2nc(N(C)C)cnc2n1CC(=O)Nc1ccc(C(F)(F)F)cc1Cl` (single isomer, unassigned) [I-196, N-(2-chloro-4-(trifluoromethyl)phenyl)-2-(2-(dimethylamino)-6-ethyl-7-(4-(5-hydroxy-6-methylpyrimidine-4-carbonyl)-2,3-dimethylpiperazin-1-yl)-8-oxopyrido[2,3-b]pyrazin-5(8H)-yl)acetamide], for which, in test [1] (Homo sapiens, HCT-116, 24 h), the EC50 was 0.5 to 2 µM. The IC50 in test [2] was 0.005 to 0.05 µM.
